From patent US20240124528A1, “ANTAGONIST OF INTERLEUKIN-17B RECEPTOR (IL-17RB) AND USE THEREOF” (Academia Sinica, priority 2020, published 2024) come the findings set out here.

Common to all, as to format: cell-based, human
The subject of assay [1] is pancreatic cancer cells expressing IL-17RB. The assay is described as follows: RT-qPCR of cytokine gene expression (CCL20, TFF1) after peptide pretreatment and rIL-17B. The note with it: CFPAC1 and PDX-derived cells; peptide 50 ng/ml 30 mins, then rIL-17B 2 hrs. The source says:
(§1) FIGS. 7A to 7J include charts showing that disruption of the interaction between IL-17RB and MLK4 by the loop peptide blocks oncogenic progression. (FIG. 7A) Peptides TAT48-57 (Control) (SEQ ID NO: 21) and TAT-IL-17RB403-416 (Loop) (SEQ ID NO: 30) used for the following experiments. (FIG. 7B) Immunoblotting analysis of IL-17RB binding to MLK4 with Loop peptide treatment. 293T cells expressing Flag-MLK4 and HA-IL-17RB were pretreated with the control and loop peptides with different dose (0, 0.1, 1, 10, 50, 100 ng/ml) for 30 mins, and then added rIL-17B for 30 mins. […] CCL20 and TFF/mRNA expression of these cells were measured by RT-qPCR (n=3) (FIG. 7D), the same cells were for invasion assay (n=4) (FIG. 7E) and SACF assay (n=4) (FIG. 7F). […] (FIG. 7I) The experimental EKP mice (n=7 for each group) were euthanized at Day 56, and the metastatic tumor nodules in the lungs were counted. […]
(§2) FIGS. 19A to 19D include charts showing that treatment with the loop peptide suppresses aggressive behavior of patient-derived pancreatic tumor cells. […] (FIG. 19C and FIG. 19D) These cells were measured by RT-qPCR for the cytokine gene mRNA expression (n=3), or for Invasion assay (n=4) (FIG. 19C) and SACF assay (n=4) (FIG. 19D). […]
(In general: Real-time PCR tracks product formation cycle by cycle.)

Assay [2] has the same test system. Kind of assay: Invasion assay after peptide treatment. The note with it: CFPAC1 and PDX-derived cells treated with peptide.
Description: as §1, §2

Assay [3] relates to PDX-derived tumor cells (PC080, PC084). The assay is described as follows: Aggressive behavior of PDX-derived pancreatic tumor cells (RT-qPCR, invasion, SACF). The note with it: peptides 30 mins, then 50 ng/ml rIL-17B. The protocol: FIGS. 19A to 19D include charts showing that treatment with the loop peptide suppresses aggressive behavior of patient-derived pancreatic tumor cells. (FIG. 19A) CFPAC1 cells were treated with Alexa Fluor 568-labeled or non-labeled cold peptides of TAT48-57 (Control) and TAT-IL-17R403-416 (Loop) for 30 mins, respectively. Confocal microscopy was used for visualization of peptide penetration into cells. (FIG. 19B) The PDX-derived tumor cells (PC080 left, PC084 right) were pretreated with the peptides for 30 mins and then treated with 50 ng/ml rIL-17B for 2 hrs in serum-free conditions. (FIG. 19C and FIG. 19D) These cells were measured by RT-qPCR for the cytokine gene mRNA expression (n=3), or for Invasion assay (n=4) (FIG. 19C) and SACF assay (n=4) (FIG. 19D). Data in (FIG. 19B—FIG. 19D) are mean±s.d. * P<0.05, **P<0.001 by two-tailed Student's t-test.

Assay [4] relates to IL-17RB. Kind of assay: Immunoblotting/IP of IL-17B-induced IL-17RB signaling in CFPAC1 cells after peptide pretreatment. The note with it: CFPAC1 cells pretreated with peptides 30 mins, then rIL-17B 30 mins. The source says:
FIGS. 7A to 7J include charts showing that disruption of the interaction between IL-17RB and MLK4 by the loop peptide blocks oncogenic progression. (FIG. 7A) Peptides TAT48-57 (Control) (SEQ ID NO: 21) and TAT-IL-17RB403-416 (Loop) (SEQ ID NO: 30) used for the following experiments. (FIG. 7B) Immunoblotting analysis of IL-17RB binding to MLK4 with Loop peptide treatment. 293T cells expressing Flag-MLK4 and HA-IL-17RB were pretreated with the control and loop peptides with different dose (0, 0.1, 1, 10, 50, 100 ng/ml) for 30 mins, and then added rIL-17B for 30 mins. The cell lysates were reciprocally co-immunoprecipitated with anti-Flag and anti-HA and blotted with the indicated antibodies or directly immunoblotted with the indicated antibodies as the input controls. (FIG. 7C to FIG. 7F) CFPAC1cells were pretreated with the peptides for 30 mins and then added rIL-17B for 30 mins. The cell lysates were immunoblotted with the indicated antibodies or immunoprecipitated with anti-IL-17RB or control IgG and blotted with the indicated antibodies (FIG. 7C). CFPAC1 cells were pretreated with TAT48-57 or TAT-IL-17RB403-416 (50 ng/ml) 30 mins and then added rIL-17B for two hrs. CCL20 and TFF/mRNA expression of these cells were measured by RT-qPCR (n=3) (FIG. 7D), the same cells were for invasion assay (n=4) (FIG. 7E) and SACF assay (n=4) (FIG. 7F). (FIG. 7G) The scheme of the treatment of transgenic pancreatic cancer EKP mice (LSL-Kras^+/G12D; p53^+/−; Ela-Cre^ERT; plus cerulein) with the Loop peptides. (FIG. 7H) IHC images of pancreases stained with anti-P-Y447 antibody. Scale bars: 50 μm. The pancreas tissues were from EKP mice after treated with the control or loop peptides at Day 42. The Kras^+/+ mice (Kras^+/+; p53^+/−; Ela-Cre^ERT; plus cerulein) were used as the non-cancerous control. Boxes indicate the enlarged areas. (FIG. 7I) The experimental EKP mice (n=7 for each group) were euthanized at Day 56, and the metastatic tumor nodules in the lungs were counted. (FIG. 7J) Kaplan-Meier survival curve plot of the lifespans of the experimental EKP mice (n=7 for each group). […]
(Immunoblotting shows a protein as a band on a membrane.)

Turning to “RKKRRQRRRVCDGTCGKSEGSPS (IL-17RB inhibitory peptide, fusion protein) [loop peptide]”, in assay [1], the “cytokine gene expression (CCL20, TFF1 mRNA)” value is listed as “diminished”. Further, the invasion ability entry in assay [2] is recorded as “diminished”. In addition, the “aggressive behavior of patient-derived pancreatic tumor cells” value in assay [3] is “suppresses”. Besides, in assay [4], the “ERK1/2 phosphorylation induced by IL-17B” value was “abolished”, the “tyrosine phosphorylation of IL-17RB induced by IL-17B” value is recorded as “abolished” and the “ubiquitination of IL-17RB induced by IL-17B” value is on record as “abolished”.
